“Also recorded” adds a separate entry of the source.
Experiments:
[1] = tested on: ER4 cells (ER4 subline of HCC827 cells resistant to erlotinib); assay: Erlotinib sensitivity of ER4 cells with AXL inhibitor treatment; format: cell-based; conditions: 0.1, 1, 10 micromolar in combination with erlotinib
From the text: FIG. 21A-21C. Overcoming acquired resistance through AXL inhibitor treatment. Erlotinib plus AD57, AD80, or AD81 in ER4 cells (ER4 subline of HCC827 cells that are resistant to erlotinib treatment). Legend: diamond symbols are DMSO control, square symbols are 0.1 micromolar of compound, triangle symbols are 1 micromolar of compound, x symbol are 10 micromolar of compound, all in combination with erlotinib.

[2] = tested on: MEN2B (MZ) thyroid cancer cells; assay: Immunoblot analysis of drug-treated MZ cells; format: cell-based, human; conditions: for phospho-Ret and downstream biomarkers: 1 hour of treatment; for cell death (protein markers of apoptosis): 3 days, 2 μM
Description: FIG. 19. […] MEN2A (TT) and MEN2B (MZ) thyroid cancer cells were treated with the indicated drugs for 3 days at a final concentration of 2 μM. Cell lystates were immunoblotted for protein markers of apoptosis. Vandetanib (vand.) was included for comparison.
FIG. 20A-20B. […] FIG. 20A. MEN2B (MZ) and FIG. 20B. MEN2A (TT) thyroid cancer cells were treated with the indicated concentrations of drug. Following 1 hour of treatment, cells were harvested and lysates prepared for immunoblotting to detect the indicated proteins. VD=vandetanib; SF=sorafenib.

[3] = tested on: 765>dRet^MEN2B wings (Ras/Erk pathway activity); assay: Adult wing vein pattern assay (765>dRetMEN2B); format: in vivo, Drosophila; conditions: drug fed flies
From the text: The adult Drosophila wing consists of a stereotypical pattern of […] and two cross-veins; increased Ras/Erk pathway activity leads to ectopic veins (e.g., Refs. (Sawamoto, K. et al., Dev Biol, 1996. 178(1): p. 13-22; Guichard, A. et al., Development, 1999. 126(12): p. 2663-76)). Expression of oncogenic dRet throughout the developing wing (765>dRet^MEN2B) led to disruption of the overall adult wing pattern including ectopic wing veins (FIG. 3D). Reducing gene dosage of the erk ortholog rolled (765>dRet^MEN2B erk−/+) suppressed these phenotypes (FIG. 3D), confirming that wing vein formation is dependent on Ras/Erk activity.

[4] = tested on: ptc>dRet^MEN2B wing cells; assay: Wing-based assay for transformation and cell migration (ptc>dRetMEN2B); format: in vivo, Drosophila; conditions: oral administration
From the text: FIG. 4E. Quantification of ptc>dRet^MEN2B phenotypes. Invasion was established by scoring for single/groups of GFP-labeled cells that relocated away from the ptc boundary (FIG. 4C, asterisks). Basal migration was scored as indentation of the apical surface (see FIG. 2B, arrows). Proliferation was scored as significant widening of the ptc boundary. The number of wings analyzed under each condition is indicated in brackets.
We previously developed a wing-based assay for transformation and cell migration that we utilized to explore Ras- and Src-based tumorigenesis (Vidal, M., D. E. Larson, and R. L. Cagan, Dev Cell, 2006. 10(1): p. 33-44). In this assay, the ptc-GAL4 driver directed oncogene expression in a stripe along the anterior-posterior axis; oncogene-based transformation led to over-proliferation, epithelial-to-mesenchymal transition (EMT), and cell migration away from the ptc domain.

ptc>dRet^MEN2B flies = assay: Drosophila ptc>dRetMEN2B viability assay; format: in vivo; conditions: for notum, scutellum and cuticle defects of ptc>dRetMEN2B adults: drug fed flies; for effect of reducing erk gene dosage on drug efficacy in viability assay: ptc>dRetMEN2B
From the text: FIG. 1A. Suppression of Ret^MEN2B-induced developmental block and whole animal toxicity were scored based on number of embryos (n) that survived as pupae (x) and adults (y). Drugs were mixed into food and fed to flies starting at larval stages.
FIG. 1B. Percent viability of control or drug treated flies determined for pupae (x/n) and adults (y/n).
Described herein is a Drosophila MEN2B model in which an intracellular mutation in the Drosophila Ret ortholog (dRet) was targeted to the eye (Read, R. D. et al., Genetics, 2005. 171(3): p. 1057-81). […] The screen is conducted in developing drosophila embryos. Under normal circumstances, drosophila embryos pass through four developmental steps: embryo→larvae→pupae→adult. […] We calibrated the ptc>dRetMEN2B assay to permit 50% survival to pupariation and 0% survival to adulthood. Mutated forms of RET are believed to be causative in human thyroid cancers including multiple endocrine neoplasia types 2A and 2B (MEN2A and MEN2B). The screen identifies small molecules that (a) suppress the toxicity induced by oncogenic RET and (b) allow flies to develop to functional adults. […] 64(19): p. 7099-109; Sun, L. et al., J Med Chem, 2003. 46(7): p.

[5] = tested on: TT (MEN2A) thyroid cancer cells; assay: TT cell viability (MTT assay); format: cell-based, human
Description: FIG. 18A-18D. […] FIG. 18A. MEN2B (MZ) thyroid cancer cells were treated with the indicated concentrations of each inhibitor (7 days) and cell viability was quantitated by MTT assay. FIG. 18B. MEN2A (TT) thyroid cancer cells were treated with the indicated concentrations of each inhibitor (7 days) and cell viability was quantitated by MTT assay. FIG. 18C. […] Change in tumor volume was calculated per mouse. Values shown are the median percent change per group. 20 and 10 animals for vehicle and drug treated mice, respectively, were analyzed. FIG. 18D. Body weight measurements of AD80, Vandetanib (VD) and vehicle treated nude mice transplanted with TT cells. Values shown are the median of 20 and 10 animals for vehicle and drug treated mice, respectively.

S6K = S6K (Homo sapiens, UniProt P23443); assay: In vitro kinase assay, S6K; format: biochemical; conditions: in vitro kinase profile, 1 μM
Description: (§1) Using in vitro kinase assays we tested AD57, AD36, and AD58 at 1 μM for activity against approximately one-half of the human kinome (FIG. 1E): 165 Ser/Thr kinases, 91 Tyr kinases, and 10 PI kinases were assayed, totaling 266 kinases (244 distinct kinases plus 22 mutant isoforms; see FIG. 6A-6C, FIG. 7A-7F, and FIG. 8 for measured inhibition values).
(§2) At least three major pathways are required for dRet^MEN2B-mediated transformation: Ras, Src, and glucose metabolism/PI3K (FIG. 3A; Ref (Read, R. D. et al., Genetics, 2005. 171(3): p. 1057-81)). We utilized in vitro kinase assays to assess compound activity against relevant kinases from each of these pathways, specifically Ret, B-Raf, Src, Tor, and S6K (FIG. 3B).

mTor = mTor (Homo sapiens, UniProt P42345); assay: In vitro kinase assay, mTor; format: biochemical; conditions: in vitro kinase profile, 1 μM
Description: as §1, §2

B-Raf = B-Raf (Homo sapiens, UniProt P15056); assay: In vitro kinase assay, B-Raf; format: biochemical; conditions: in vitro kinase profile, 1 μM
Description: as §1, §2

Src = Src (Homo sapiens, UniProt P12931); assay: In vitro kinase assay, Src; format: biochemical; conditions: in vitro kinase profile, 1 μM
Description: as §1, §2

[6] = oral administration, drug mixed into food

Sequence of Src (P12931 whole entry): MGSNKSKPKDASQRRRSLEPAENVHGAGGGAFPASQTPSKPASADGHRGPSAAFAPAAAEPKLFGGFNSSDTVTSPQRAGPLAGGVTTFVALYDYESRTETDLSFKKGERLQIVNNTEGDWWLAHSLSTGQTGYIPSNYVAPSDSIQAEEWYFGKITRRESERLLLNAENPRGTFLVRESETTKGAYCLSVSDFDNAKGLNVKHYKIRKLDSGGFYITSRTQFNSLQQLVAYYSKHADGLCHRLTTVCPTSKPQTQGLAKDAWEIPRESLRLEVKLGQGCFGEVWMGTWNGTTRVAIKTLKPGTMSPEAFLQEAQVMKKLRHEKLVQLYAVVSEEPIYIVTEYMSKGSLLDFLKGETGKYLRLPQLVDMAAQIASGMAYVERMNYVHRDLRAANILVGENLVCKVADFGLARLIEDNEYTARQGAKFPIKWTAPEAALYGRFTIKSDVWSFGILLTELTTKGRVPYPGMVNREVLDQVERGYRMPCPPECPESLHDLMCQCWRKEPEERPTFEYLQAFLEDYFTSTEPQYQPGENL
Sequence of B-Raf (P15056 whole entry): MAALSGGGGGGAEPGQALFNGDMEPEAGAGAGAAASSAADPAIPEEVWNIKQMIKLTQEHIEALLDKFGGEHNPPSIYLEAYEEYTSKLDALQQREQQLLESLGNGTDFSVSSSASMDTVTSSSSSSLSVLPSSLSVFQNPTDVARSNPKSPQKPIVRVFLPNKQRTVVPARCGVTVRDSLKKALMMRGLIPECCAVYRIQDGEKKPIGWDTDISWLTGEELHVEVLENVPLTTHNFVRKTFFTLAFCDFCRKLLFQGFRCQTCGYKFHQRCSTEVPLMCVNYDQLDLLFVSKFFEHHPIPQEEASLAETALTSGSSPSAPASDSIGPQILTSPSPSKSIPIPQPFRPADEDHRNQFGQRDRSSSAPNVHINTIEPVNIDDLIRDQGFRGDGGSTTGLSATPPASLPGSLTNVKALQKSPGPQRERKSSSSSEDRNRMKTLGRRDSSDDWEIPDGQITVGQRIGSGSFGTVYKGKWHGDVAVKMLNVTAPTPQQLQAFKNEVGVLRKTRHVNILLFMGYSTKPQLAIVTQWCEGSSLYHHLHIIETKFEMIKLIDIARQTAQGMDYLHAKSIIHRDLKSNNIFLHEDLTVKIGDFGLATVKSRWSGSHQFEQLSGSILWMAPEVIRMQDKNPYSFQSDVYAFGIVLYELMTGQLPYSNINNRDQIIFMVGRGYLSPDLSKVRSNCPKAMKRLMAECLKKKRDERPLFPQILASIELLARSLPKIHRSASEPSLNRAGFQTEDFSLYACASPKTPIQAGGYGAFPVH
Sequence of S6K (P23443 whole entry, canonical isoform): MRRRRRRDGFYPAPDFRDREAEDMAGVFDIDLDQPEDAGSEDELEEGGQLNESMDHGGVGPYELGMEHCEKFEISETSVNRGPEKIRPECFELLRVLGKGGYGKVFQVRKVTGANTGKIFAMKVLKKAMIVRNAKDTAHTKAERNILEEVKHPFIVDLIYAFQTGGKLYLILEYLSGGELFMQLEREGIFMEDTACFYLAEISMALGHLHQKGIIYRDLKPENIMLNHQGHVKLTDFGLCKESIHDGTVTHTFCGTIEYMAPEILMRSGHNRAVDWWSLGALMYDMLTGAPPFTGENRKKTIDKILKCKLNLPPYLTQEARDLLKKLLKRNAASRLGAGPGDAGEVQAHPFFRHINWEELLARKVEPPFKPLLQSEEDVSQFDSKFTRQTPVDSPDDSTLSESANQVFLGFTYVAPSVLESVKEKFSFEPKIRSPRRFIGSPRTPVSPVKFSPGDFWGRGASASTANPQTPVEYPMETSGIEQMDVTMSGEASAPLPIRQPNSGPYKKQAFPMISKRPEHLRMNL

Structure (SMILES) | sensitivity to erlotinib [1] | phospho-Ret and downstream biomarkers [2] | cell death (protein markers of apoptosis) [2] | ectopic wing vein / wing pattern phenotype [3] | basal phospho-Src in wing epithelium [4] | suppression of dRetMEN2B-induced proliferation, EMT, invasion/basal migration [4] | notum, scutellum and cuticle defects of ptc>dRetMEN2B adults (ptc>dRet^MEN2B flies) | animals rescued / developing to adulthood (ptc>dRet^MEN2B flies; [6]) | rescue of ptc>dRetMEN2B viability (pupae, adults), in words (ptc>dRet^MEN2B flies; [6]) | effect of reducing dTor on drug efficacy/toxicity (ptc>dRet^MEN2B flies; ptc>dRetMEN2B dTor-/+) | effect of reducing erk gene dosage on drug efficacy in viability assay (ptc>dRet^MEN2B flies) | inhibition of TT cell viability / proliferation, in words [5] | IC50, fold lower than Vandetanib ([5]; TT cell line, dose-response) | S6K inhibition, in words (S6K) | mTor inhibition, in words (mTor) | B-Raf (Raf) inhibition, in words (B-Raf) | Src inhibition, in words (Src)
CC(C)n1nc(-c2ccc(NC(=O)Nc3cccc(C(F)(F)F)c3)cc2)c2c(N)ncnc21 [AD57] | confer dose-dependent sensitivity to erlotinib | potent inhibitors | induce cell death | suppressed | suppressed phospho-Src in basal regions of the wing epithelium | potent in vivo suppression; also recorded: strongly suppressed | strongly suppressed; also recorded: complete suppression of notum and scutellum defects; also recorded: some cuticle defects | approximately 25% | best single-agent hit; also recorded: potently suppressed | dominantly suppressed the efficacy | considerably enhanced the efficacy | most potent inhibition | more than 150 fold | potent inhibitor | potent inhibitor | potent inhibitor | potent inhibitor; also recorded: strongly inhibited
CC(C)n1nc(-c2ccc(NC(=O)Nc3cc(C(F)(F)F)ccc3F)cc2)c2c(N)ncnc21 [AD80] | confer dose-dependent sensitivity to erlotinib | potent downregulation of phospho-Ret; also recorded: potent inhibitors | induce cell death | suppressed; also recorded: potently rescued | potently blocked | significantly improved suppression; also recorded: potently blocked | phenotypically normal | – | improved rescue relative to AD57 | – | did not alter efficacy | inhibited proliferation | – | inhibited | not and greatly reduced mTor activity and lack significant inhibitory activity | inhibited | inhibited

— US9321772B2, “Substituted pyrazolo[3,4-D]pyrimidines and uses thereof” (The Regents of the University of California, priority 2011, dated 2016)
